Assay results: publication PMC4912077 (PLoS ONE, 2016)

Columns and labels:
[1] = molecular target: Alpha2A (Homo sapiens, UniProt P08913); experiment: NIMH PDSP radioligand binding, Alpha2A
Description: (§1) Radioligands and concentrations used for additional 45 CNS receptor binding assays are listed as supporting information (S1 Table). This work was performed by the National Institute of Mental Health Psychoactive Drug Screening Program (NIMH PDSP) as described previously.[26] Briefly target compounds were dissolved in DMSO and subjected to a primary screen at 10,000 nM concentration. […] Additional experimental details are available in the NIMH PDSP assay protocol book.

[2] = molecular target: T1, Alpha2C (Homo sapiens, UniProt P18825); experiment: NIMH PDSP radioligand binding, Alpha2C
T1 sequence (P18825 1-462): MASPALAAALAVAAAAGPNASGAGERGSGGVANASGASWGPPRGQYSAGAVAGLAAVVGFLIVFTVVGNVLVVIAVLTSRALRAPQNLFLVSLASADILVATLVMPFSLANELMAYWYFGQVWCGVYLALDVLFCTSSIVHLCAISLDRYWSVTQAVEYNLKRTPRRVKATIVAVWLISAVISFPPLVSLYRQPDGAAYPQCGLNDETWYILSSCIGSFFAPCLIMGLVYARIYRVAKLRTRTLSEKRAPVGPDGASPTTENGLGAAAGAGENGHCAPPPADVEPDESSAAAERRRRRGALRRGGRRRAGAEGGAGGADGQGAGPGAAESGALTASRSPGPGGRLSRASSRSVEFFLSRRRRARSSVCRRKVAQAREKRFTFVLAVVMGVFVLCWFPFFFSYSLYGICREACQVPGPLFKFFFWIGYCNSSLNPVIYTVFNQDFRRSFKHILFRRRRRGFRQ
Description: as §1

[3] = molecular target: KOR (Homo sapiens, UniProt P41145); experiment: NIMH PDSP radioligand binding, KOR
Sequence of KOR (P41145 whole entry): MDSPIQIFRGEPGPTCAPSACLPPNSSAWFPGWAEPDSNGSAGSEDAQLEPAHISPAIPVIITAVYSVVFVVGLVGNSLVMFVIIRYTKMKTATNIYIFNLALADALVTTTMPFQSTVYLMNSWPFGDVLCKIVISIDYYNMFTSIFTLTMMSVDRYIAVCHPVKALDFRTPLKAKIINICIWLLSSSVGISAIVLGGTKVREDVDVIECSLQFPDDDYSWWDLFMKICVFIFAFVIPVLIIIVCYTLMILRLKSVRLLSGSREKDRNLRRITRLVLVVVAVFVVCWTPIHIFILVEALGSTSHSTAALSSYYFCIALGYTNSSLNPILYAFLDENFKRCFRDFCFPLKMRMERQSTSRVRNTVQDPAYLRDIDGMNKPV
Description: as §1

[4] = system: NMDA receptor; experiment: NMDA receptor-mediated fEPSP (NMDAR-fEPSP) in CA1 of hippocampal slices; assay type: cell-based, rat; settings: 10 μM
Description: (§2) Male Wistar rats (Crl:Wi; Charles River, UK) aged 9–10 wk were sacrificed by neck vertebral dislocation (schedule 1 method) according to the United Kingdom (Scientific Procedures) Act of 1986. […] The brain was cut parasagittally into 400 μm sections and hippocampal slices were removed, stored and placed in a submerged recording chamber at 28–30°C. Recordings of synaptic activity were made, analyzed and presented as described. A bipolar electrode was used to deliver stimuli (0.03 Hz) to the Schaffer collateral pathway to enable recording of field excitatory synaptic potentials (fEPSPs) using a glass microelectrode positioned in the stratum radiatum of area CA1. […] After 30 min of stable control responses, 1 and 10 μM solutions of the individual compounds were added to the perfusate for 3–12 h while recording the amplitude and area of the NMDAR-fEPSP on-line using WinLTP [31]. Single exponential curves were fitted to the graphs and curves extrapolated to show likely half-times and minimum plateau responses achieved with each concentration of the compounds. Raw data for all fEPSP experiments are provided as supporting information (S2, S3 and S4 Files).

[5] = system: AMPA receptor; experiment: AMPA receptor-mediated fEPSP in hippocampal slices (2-MXP selectivity); assay type: cell-based, rat
Description: as §2
To examine the specificity of DPH analogues, 2-MXP was superfused at 50 (n = 2) and 100 μM (n = 1) in the absence of AMPA and GABA receptor antagonists (Fig 3C).

[6] = molecular target: T2, NET (Homo sapiens, UniProt P23975); experiment: Monoamine reuptake inhibition assay, NET in HEK293 cells; assay type: cell-based; design: expressed in transfected cells; host or cells: HEK293; settings: for Hill slope NET reuptake inhibition: HEK293 cells
T2 sequence (P23975 whole entry): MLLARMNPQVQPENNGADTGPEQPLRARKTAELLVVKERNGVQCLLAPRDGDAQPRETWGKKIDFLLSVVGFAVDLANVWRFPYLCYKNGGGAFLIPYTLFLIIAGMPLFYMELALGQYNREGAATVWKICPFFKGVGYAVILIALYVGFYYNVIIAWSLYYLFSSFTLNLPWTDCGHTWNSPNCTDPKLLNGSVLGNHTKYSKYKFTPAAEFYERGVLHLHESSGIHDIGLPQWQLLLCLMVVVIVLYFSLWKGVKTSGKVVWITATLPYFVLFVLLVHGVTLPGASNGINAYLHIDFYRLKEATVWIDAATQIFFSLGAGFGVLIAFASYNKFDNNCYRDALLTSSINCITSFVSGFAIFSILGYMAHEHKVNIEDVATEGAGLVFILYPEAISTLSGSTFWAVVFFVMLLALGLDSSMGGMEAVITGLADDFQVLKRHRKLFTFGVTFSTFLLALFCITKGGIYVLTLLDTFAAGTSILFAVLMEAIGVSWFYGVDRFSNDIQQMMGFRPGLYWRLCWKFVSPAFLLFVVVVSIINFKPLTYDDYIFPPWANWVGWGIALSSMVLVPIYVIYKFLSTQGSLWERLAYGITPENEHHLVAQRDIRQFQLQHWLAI
Description: Monoamine reuptake inhibition assays were performed via the NIMH PDSP as previously described.[28] In brief, the neurotransmitter transporter uptake assay kit (R8174) (Molecular Devices) was used. Human monoamine transporters (DAT, NET and SERT) were stably expressed in HEK293 cells. Assay buffer consisted of 20 mM HEPES, 1x HBSS at pH 7.4. Cells were plated in Pol-L-Lys (PLL) coated 384-well black clear bottom cell culture plates with a density of 15,000 cells/well. Cells were incubated for at least 6 h prior to assay. Media was removed and replaced with 20 μL assay buffer and 5 μL of drug or positive control (cocaine or nisoxetine) as a 5X stock. Cells were incubated for 30 min at 37°C. 25 μL of dye solution was then added and following an additional 30 min incubation (at 37°C) fluorescence intensity was measured using a FlexStation II (bottom read mode, excitation wavelength = […], emission = 520 nM with a cutoff of 510 nM). […] Additional details are available in the NIMH PDSP assay protocol book.

[7] = molecular target: Alpha2B (Homo sapiens, UniProt P18089); experiment: NIMH PDSP radioligand binding, Alpha2B
Sequence of Alpha2B (P18089 whole entry): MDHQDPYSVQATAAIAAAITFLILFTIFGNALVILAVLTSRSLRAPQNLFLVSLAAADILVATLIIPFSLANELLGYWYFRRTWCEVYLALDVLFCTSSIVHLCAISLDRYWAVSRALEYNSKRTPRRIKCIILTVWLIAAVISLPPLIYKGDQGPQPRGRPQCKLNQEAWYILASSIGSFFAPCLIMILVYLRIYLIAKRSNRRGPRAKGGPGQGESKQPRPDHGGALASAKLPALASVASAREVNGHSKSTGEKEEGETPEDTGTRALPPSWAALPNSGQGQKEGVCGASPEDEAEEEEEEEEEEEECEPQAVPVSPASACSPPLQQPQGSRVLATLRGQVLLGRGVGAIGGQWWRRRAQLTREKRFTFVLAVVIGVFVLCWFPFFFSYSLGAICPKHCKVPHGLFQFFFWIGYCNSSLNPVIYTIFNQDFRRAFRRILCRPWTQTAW
Description: as §1

[8] = molecular target: H3 (Homo sapiens, UniProt Q9Y5N1); experiment: NIMH PDSP radioligand binding, H3
Sequence of H3 (Q9Y5N1 whole entry): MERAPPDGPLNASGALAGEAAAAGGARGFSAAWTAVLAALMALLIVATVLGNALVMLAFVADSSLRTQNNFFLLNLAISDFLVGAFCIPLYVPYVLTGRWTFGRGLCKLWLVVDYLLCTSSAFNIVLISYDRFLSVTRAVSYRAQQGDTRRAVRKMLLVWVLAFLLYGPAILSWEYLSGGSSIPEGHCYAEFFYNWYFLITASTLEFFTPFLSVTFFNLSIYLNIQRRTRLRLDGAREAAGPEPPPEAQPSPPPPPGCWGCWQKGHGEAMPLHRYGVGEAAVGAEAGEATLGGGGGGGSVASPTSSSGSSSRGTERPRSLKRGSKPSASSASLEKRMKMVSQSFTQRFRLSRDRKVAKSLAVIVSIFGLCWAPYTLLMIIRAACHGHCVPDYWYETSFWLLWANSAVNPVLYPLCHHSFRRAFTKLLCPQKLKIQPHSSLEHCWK
Description: as §1

[9] = molecular target: M1 (Homo sapiens, UniProt P11229); experiment: NIMH PDSP radioligand binding, M1
Sequence of M1 (P11229 whole entry): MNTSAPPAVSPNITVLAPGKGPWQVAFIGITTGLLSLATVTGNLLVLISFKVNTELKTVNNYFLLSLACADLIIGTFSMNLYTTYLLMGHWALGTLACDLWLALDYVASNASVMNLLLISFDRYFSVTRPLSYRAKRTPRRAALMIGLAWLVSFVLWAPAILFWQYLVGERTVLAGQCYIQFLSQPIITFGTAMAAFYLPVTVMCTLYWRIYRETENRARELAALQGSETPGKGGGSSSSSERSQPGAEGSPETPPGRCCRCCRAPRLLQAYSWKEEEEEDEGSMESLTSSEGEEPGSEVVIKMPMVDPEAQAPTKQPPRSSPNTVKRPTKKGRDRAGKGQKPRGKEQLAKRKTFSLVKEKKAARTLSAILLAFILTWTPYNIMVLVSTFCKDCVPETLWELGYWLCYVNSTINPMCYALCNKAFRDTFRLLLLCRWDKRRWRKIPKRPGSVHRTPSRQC

[10] = molecular target: M2 (Homo sapiens, UniProt P08172); experiment: NIMH PDSP radioligand binding, M2
Sequence of M2 (P08172 whole entry): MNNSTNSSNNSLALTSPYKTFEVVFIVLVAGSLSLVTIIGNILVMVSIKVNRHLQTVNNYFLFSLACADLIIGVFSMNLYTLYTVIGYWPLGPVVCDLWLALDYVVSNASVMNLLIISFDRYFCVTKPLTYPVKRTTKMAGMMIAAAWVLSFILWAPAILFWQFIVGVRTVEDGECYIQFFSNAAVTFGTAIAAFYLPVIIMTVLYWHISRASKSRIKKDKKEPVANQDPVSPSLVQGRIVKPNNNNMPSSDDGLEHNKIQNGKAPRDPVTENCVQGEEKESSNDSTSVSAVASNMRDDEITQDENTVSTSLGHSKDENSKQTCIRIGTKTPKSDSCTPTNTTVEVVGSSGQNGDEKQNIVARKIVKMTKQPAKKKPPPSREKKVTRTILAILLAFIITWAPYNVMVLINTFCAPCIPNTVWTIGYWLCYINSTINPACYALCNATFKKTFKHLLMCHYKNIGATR

[11] = molecular target: T2, NET; experiment: NIMH PDSP radioligand binding, NET
Description: as §1

Sequence of Alpha2A (P08913 whole entry): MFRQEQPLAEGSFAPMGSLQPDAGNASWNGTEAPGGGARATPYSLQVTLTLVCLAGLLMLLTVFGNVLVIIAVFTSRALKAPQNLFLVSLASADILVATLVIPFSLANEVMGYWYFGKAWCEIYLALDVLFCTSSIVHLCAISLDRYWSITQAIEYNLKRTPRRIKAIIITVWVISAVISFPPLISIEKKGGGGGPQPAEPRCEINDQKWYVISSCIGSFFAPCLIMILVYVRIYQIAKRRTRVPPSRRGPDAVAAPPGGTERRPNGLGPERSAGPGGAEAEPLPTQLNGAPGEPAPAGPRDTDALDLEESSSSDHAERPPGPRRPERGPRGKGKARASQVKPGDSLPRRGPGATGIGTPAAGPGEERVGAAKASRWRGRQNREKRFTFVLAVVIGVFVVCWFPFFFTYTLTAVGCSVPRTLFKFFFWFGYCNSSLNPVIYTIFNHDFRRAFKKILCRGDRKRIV

COc1ccccc1C(Cc1ccccc1)N1CCCCC1 (centres unmarked) [2-MXP, 2-methoxydiphenidine]
Ki [1]: 2000 nM | Ki [2]: 1940 nM | Ki [3]: 1690 nM | effect on NMDAR-fEPSP [4]: abolished | effect on AMPA receptor-mediated fEPSP ([5]; 50 and 100 μM, without AMPA and GABA receptor antagonists): No reduction of the AMPA receptor-mediated fEPSP was seen | potency as antagonist of NMDAR relative to AMPA receptor responses ([5]; hippocampal slices): > 50 times | IC50 [6]: 35200 nM | Hill slope NET reuptake inhibition [6]: 2.04

c1ccc(CC(c2ccccc2)N2CCCCC2)cc1 (centres unmarked) [DPH, diphenidine]
Ki [7]: 4380 nM | Ki [2]: 3050 nM | Ki [8]: 1020 nM | Ki [3]: 3900 nM | Ki [9]: 2650 nM | Ki [10]: 3700 nM | Ki [11]: 2810 nM | IC50 [6]: 9250 nM | Hill slope NET reuptake inhibition [6]: 0.97
